Reference: ChEMBL document CHEMBL1201862, “PubChem BioAssay data set” (2004)
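Exposure lasted 48 hours, with cells grown in 96-well plates and compounds tested at five concentrations. GI50 is the concentration that inhibits growth by half.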 Activity calls are given as the source filed them. No stated cut-off is given here; in the data, active = GI50 up to about 1.1 µM and inactive = higher.

Assays:
Experiment in all cases: DTP human tumour cell line panel, 48 h
HOP-92 = system: HOP-92
RXF 393 = system: RXF 393
CCRF-CEM = system: CCRF-CEM
SF-268 = system: SF-268
A549 = system: A549
NCI-H522 = system: NCI-H522
SK-MEL-28 = system: SK-MEL-28
HCT-116 = system: HCT-116
LOX IMVI = system: LOX IMVI
SW-620 = system: SW-620
DLD-1 = system: DLD-1
SK-MEL-2 = system: SK-MEL-2
OVCAR-5 = system: OVCAR-5
Malme-3M = system: Malme-3M
SNB-19 = system: SNB-19
SNB-78 = system: SNB-78
TK-10 = system: TK-10
KM12 = system: KM12
MOLT-4 = system: MOLT-4
786-0 = system: 786-0
HOP-18 = system: HOP-18
RXF 631 = system: RXF 631
IGROV-1 = system: IGROV-1
ACHN = system: ACHN
SF-539 = system: SF-539
NCI-H460 = system: NCI-H460
SF-295 = system: SF-295
DMS-114 = system: DMS-114
K562 = system: K562
UO-31 = system: UO-31
KM-20L2 = system: KM-20L2
HL-60 = system: HL-60
RPMI-8226 = system: RPMI-8226
NCI-H23 = system: NCI-H23
COLO 205 = system: COLO 205
HT-29 = system: HT-29
M19-MEL = system: M19-MEL
HCC 2998 = system: HCC 2998
U-251 = system: U-251
OVCAR-3 = system: OVCAR-3
DMS-273 = system: DMS-273
SK-OV-3 = system: SK-OV-3
SNB-75 = system: SNB-75
XF498 = system: XF498
OVCAR-8 = system: OVCAR-8
LXFL 529 = system: LXFL 529
EKVX = system: EKVX
A498 = system: A498
HOP-62 = system: HOP-62
UACC-257 = system: UACC-257
OVCAR-4 = system: OVCAR-4
SR = system: SR
NCI-H226 = system: NCI-H226
HCT-15 = system: HCT-15
UACC-62 = system: UACC-62
SK-MEL-5 = system: SK-MEL-5
SN12C = system: SN12C
M14 = system: M14
CAKI-1 = system: CAKI-1

In the case of `CC(C)CC(=O)N1CCN(C(=O)CC(C)C)c2ccccc21`, the GI50 (HOP-92) is reported as > 100 µM (inactive), the GI50 (RXF 393) is reported as > 100 µM (inactive) and the GI50 (CCRF-CEM) is reported as > 100 µM (inactive). The GI50 (SF-268) was > 100 µM (inactive), the GI50 (A549) was > 100 µM (inactive) and the GI50 (NCI-H522) was > 100 µM (inactive). The GI50 (SK-MEL-28) was > 100 µM (inactive), the GI50 (HCT-116) was > 100 µM (inactive) and the GI50 (LOX IMVI) was > 100 µM (inactive). For the same molecule, the GI50 (SW-620) was > 100 µM (inactive), the GI50 (DLD-1) was > 100 µM (inactive) and the GI50 (SK-MEL-2) was > 100 µM (inactive). For the same molecule, the GI50 (OVCAR-5) was > 100 µM (inactive), the GI50 (Malme-3M) was > 100 µM (inactive) and the GI50 (SNB-19) was > 100 µM (inactive). For the same molecule, the GI50 (SNB-78) was 91.6 µM (inactive), the GI50 (TK-10) was > 100 µM (inactive) and the GI50 (KM12) was > 100 µM (inactive). For the same molecule, the GI50 (MOLT-4) was > 100 µM (inactive), the GI50 (786-0) was > 100 µM (inactive) and the GI50 (HOP-18) was 10.1 µM (inactive). The GI50 (RXF 631) was > 100 µM (inactive), the GI50 (IGROV-1) was > 100 µM (inactive) and the GI50 (ACHN) was > 100 µM (inactive). The GI50 (SF-539) was > 100 µM (inactive), the GI50 (NCI-H460) was > 100 µM (inactive) and the GI50 (SF-295) was > 100 µM (inactive). The GI50 (DMS-114) was > 100 µM (inactive), the GI50 (K562) was > 100 µM (inactive) and the GI50 (UO-31) was > 100 µM (inactive). The GI50 (KM-20L2) was > 100 µM (inactive), the GI50 (HL-60) was > 100 µM (inactive) and the GI50 (RPMI-8226) was > 100 µM (inactive). For the same molecule, the GI50 (NCI-H23) was > 100 µM (inactive), the GI50 (COLO 205) was > 100 µM (inactive) and the GI50 (HT-29) was > 100 µM (inactive). For the same molecule, the GI50 (M19-MEL) was > 100 µM (inactive), the GI50 (HCC 2998) was > 100 µM (inactive) and the GI50 (U-251) was > 100 µM (inactive). The GI50 (OVCAR-3) was > 100 µM (inactive), the GI50 (DMS-273) was > 100 µM (inactive) and the GI50 (SK-OV-3) was > 100 µM (inactive). For the same molecule, the GI50 (SNB-75) was > 100 µM (inactive), the GI50 (XF498) was > 100 µM (inactive) and the GI50 (OVCAR-8) was > 100 µM (inactive). For the same molecule, the GI50 (LXFL 529) was > 100 µM (inactive), the GI50 (EKVX) was > 100 µM (inactive) and the GI50 (A498) was > 100 µM (inactive). For the same molecule, the GI50 (HOP-62) was > 100 µM (inactive) and the GI50 (UACC-257) was > 100 µM (inactive).

For `CN1CCC(=O)/C(=C/c2ccccc2)C1`, the GI50 (HOP-92) was 17.5 µM (inactive), the GI50 (OVCAR-4) was 17.9 µM (inactive) and the GI50 (RXF 393) was 13.7 µM (inactive). For the same molecule, the GI50 (CCRF-CEM) was 8.93 µM (inactive), the GI50 (SF-268) was 17.5 µM (inactive) and the GI50 (A549) was 17.7 µM (inactive). The GI50 (NCI-H522) was 8.95 µM (inactive), the GI50 (SK-MEL-28) was 18.2 µM (inactive) and the GI50 (SR) was 2.91 µM (inactive). The GI50 (NCI-H226) was 16.8 µM (inactive), the GI50 (HCT-116) was 1.78 µM (inactive) and the GI50 (LOX IMVI) was 5.58 µM (inactive). For the same molecule, the GI50 (SW-620) was 4.99 µM (inactive), the GI50 (DLD-1) was 6.24 µM (inactive) and the GI50 (SK-MEL-2) was 20.5 µM (inactive). For the same molecule, the GI50 (OVCAR-5) was 15.7 µM (inactive), the GI50 (Malme-3M) was 19.5 µM (inactive) and the GI50 (SNB-19) was 17.1 µM (inactive). For the same molecule, the GI50 (SNB-78) was 19.6 µM (inactive), the GI50 (TK-10) was 16.1 µM (inactive) and the GI50 (KM12) was 2.23 µM (inactive). The GI50 (MOLT-4) was 7.74 µM (inactive), the GI50 (786-0) was 12.5 µM (inactive) and the GI50 (HCT-15) was 7.06 µM. For the same molecule, the GI50 (HOP-18) was 18.2 µM (inactive), the GI50 (RXF 631) was 16.7 µM (inactive) and the GI50 (UACC-62) was 21.9 µM (inactive). The GI50 (IGROV-1) was 16 µM (inactive), the GI50 (ACHN) was 17.9 µM (inactive) and the GI50 (SK-MEL-5) was 17.9 µM (inactive). The GI50 (SF-539) was 17.7 µM (inactive), the GI50 (NCI-H460) was 16.3 µM (inactive) and the GI50 (SF-295) was 15.4 µM (inactive). The GI50 (DMS-114) was 9.68 µM (inactive), the GI50 (K562) was 5.24 µM (inactive) and the GI50 (UO-31) was 17.9 µM (inactive). The GI50 (KM-20L2) was 12.4 µM (inactive), the GI50 (HL-60) was 9.35 µM (inactive) and the GI50 (SN12C) was 14.7 µM (inactive). For the same molecule, the GI50 (RPMI-8226) was 2.86 µM (inactive), the GI50 (NCI-H23) was 17.5 µM (inactive) and the GI50 (COLO 205) was 13.7 µM (inactive). For the same molecule, the GI50 (HT-29) was 3.32 µM (inactive), the GI50 (M19-MEL) was 5.45 µM (inactive) and the GI50 (HCC 2998) was 10.9 µM (inactive). The GI50 (U-251) was 6.44 µM (inactive), the GI50 (M14) was 13.2 µM (inactive) and the GI50 (OVCAR-3) was 11.6 µM (inactive). The GI50 (DMS-273) was 6.55 µM (inactive), the GI50 (SK-OV-3) was 20.2 µM (inactive) and the GI50 (SNB-75) was 6.85 µM (inactive). For the same molecule, the GI50 (XF498) was 18.7 µM (inactive), the GI50 (OVCAR-8) was 22 µM (inactive) and the GI50 (LXFL 529) was 6.32 µM (inactive). The GI50 (EKVX) was 23 µM (inactive), the GI50 (CAKI-1) was 17.9 µM (inactive) and the GI50 (A498) was 18.5 µM (inactive). The GI50 (HOP-62) was 20.6 µM (inactive) and the GI50 (UACC-257) was 14.7 µM (inactive).
